# Data: patent US5962415A, “Compositions comprising a peptide inhibitor of nuclear protein translocation and an immunosuppressant and methods of use thereof” (Bristol-Myers Squibb Co., priority 1998, dated 1999)
# System: THP-1 human monocytic cells
# Experiment: LPS-stimulated cytokine (TNF-α, IL-8) production in THP-1 cells
# Assay type: cell-based
# Settings: 5 μM or 10 μM, 2 hr preincubation, 5 hr LPS stimulation, FIG. 2
# Procedure: Amounts of TNF-α, IL-6, IL-8 and IL-10 were determined using the ELISA kits obtained from Genzyme following the manufacturer's instructions.
# THP-1 control cells were harvested, washed and set up in RPMI 1640, 10% fetal calf serum, at a concentration of 2.56×10^6 cells/ml. Phosphate buffered saline ("PBS") or one of the two respective polypeptides SV40MEM or SV40 (a peptide having only the SV40 large T antigen NLS sequence) were added to the cells at a concentration of 10 μM or 20 μM. The cells were then plated into a 96-well plate with 0.1 ml/well. The plate was then incubated for 2 hr at 37° C. in a 5% CO2 atmosphere. Following the initial incubation, media or a titration of LPS was added to each of the wells in a volume of 0.1 ml. Thus, the final concentrations of polypeptides were 5 μM or 10 μM. Following 5 hr of LPS stimulation, supernatants were taken and TNF-α and IL-8 levels were determined by ELISA. In addition, cells treated with PBS or polypeptides, but not incubated with LPS, were removed at the time of supernatant removal to determine the viability of the cells following 7 hr of contact with the polypeptides.
# This experiment was conducted to compare the inhibitory effect of the SV40MEM polypeptide and other inhibitory polypeptides on LPS induction of cytokine production. THP-1 control cells (ATCC 9/95 stock) were harvested, washed and set up in RPMI 1640, 10% fetal calf serum as described in Example 2. The cells were incubated for 2 hr with PBS or (1) the FGF signal sequence, (2) a polypeptide having the FGF signal sequence and the NLS of NF-κB p50 on the carboxy terminus of the signal sequence, (3) the SV40MEM polypeptide comprised of L-amino acids, or (4) the SV40MEM polypeptide comprised of D-amino acids at a final concentration of 5 μM. The cells were then plated into a 96-well plate with 0.1 ml/well. The plate was then incubated for 2 hr at 37° C. in a 5% CO2 atmosphere. Following the initial incubation, media or a titration of LPS was added to each of the wells in a volume of 0.01 ml/well. Following 5 hr of LPS stimulation, supernatants were taken and TNF-α levels were determined by ELISA.
sequence,measurement,value
"PKKKRKVAAVALLPAVLLALLAPKKKRKVC [SV40MEM, FGF signal peptide hydrophobic region flanked by SV40 large T antigen NLS]",TNF-α production,inhibited TNF-α production in a dose-dependent manner
